PubChem BioAssay (NCI)
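Growth conditions: 96-well plates. Treatment: test compound, 48 hours, 5 concentrations. Analysis: linear interpolation between bracketing concentrations; unreached endpoints set to highest concentration. GI50 marks 50% less growth. TGI marks complete inhibition of growth.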

How the values were obtained:
Assay in all cases: NCI tumour cell line growth inhibition, 48 h
SNB-78 CNS = tested on: SNB-78 CNS
DMS 273 small cell lung = tested on: DMS 273 small cell lung
RXF-631 renal = tested on: RXF-631 renal
HOP-18 NSCLC = tested on: HOP-18 NSCLC
DMS 114 small cell lung = tested on: DMS 114 small cell lung
KM20L2 colon = tested on: KM20L2 colon
DLD-1 colon = tested on: DLD-1 colon
XF 498 CNS = tested on: XF 498 CNS
M19-MEL melanoma = tested on: M19-MEL melanoma
NCI-H226 lung = tested on: NCI-H226 lung
MDA-MB-435 = tested on: MDA-MB-435
PC-3 prostate = tested on: PC-3 prostate
LXFL 529 NSCLC = tested on: LXFL 529 NSCLC
P388 leukemia = tested on: P388 leukemia
SN12K1 renal = tested on: SN12K1 renal
P388/ADR leukemia = tested on: P388/ADR leukemia

`O=C(O)C1=C(CO)Oc2cc3c(cc2C1c1ccc2c(c1)OCO2)OCO3` (stereo unspecified) was tested, and the TGI (SNB-78 CNS) was > 100 µM, the TGI (DMS 273 small cell lung) was > 100 µM and the TGI (RXF-631 renal) was > 100 µM. The TGI (HOP-18 NSCLC) was > 100 µM, the TGI (DMS 114 small cell lung) was > 100 µM and the TGI (KM20L2 colon) was > 100 µM. For the same compound, the TGI (DLD-1 colon) was > 100 µM, the TGI (XF 498 CNS) was > 100 µM and the TGI (M19-MEL melanoma) was > 100 µM.

For `CC(C)N(CC(=O)O)CC(=O)O`, the TGI (NCI-H226 lung) was > 100 µM, the TGI (MDA-MB-435) was > 100 µM and the TGI (PC-3 prostate) was > 100 µM.

Compound `CC(C)=CCC/C(C)=C/Cc1c2c(c3oc(-c4ccc(O)c(O)c4)c(O)c(=O)c3c1O)C=CC(C)(C)O2` has a TGI (NCI-H226 lung) of 15.2 µM, a TGI (MDA-MB-435) of 12.6 µM and a TGI (PC-3 prostate) of 12.5 µM.

`COc1ccc2c(O)c1-c1c(OC)ccc(c1O)SSc1ccc(OC)c(c1O)-c1c(OC)ccc(c1O)SS2` was tested, and the TGI (NCI-H226 lung) was > 100 µM, the TGI (MDA-MB-435) was > 100 µM and the TGI (PC-3 prostate) was 26.4 µM.

For `[O-]c1c2c(nn1-c1ccc(F)cc1)c1ccccc1c[n+]2Cc1ccccc1`, the TGI (SNB-78 CNS) was 35.4 µM, the TGI (NCI-H226 lung) was 47.4 µM and the TGI (DMS 114 small cell lung) was 32.9 µM. It also gave a TGI (KM20L2 colon) of 25.9 µM, a TGI (DLD-1 colon) of 43.7 µM and a TGI (XF 498 CNS) of 45.2 µM. The TGI (LXFL 529 NSCLC) was 18.8 µM.

`C/C(=C\[Si](C)(C)c1ccco1)C(C)(O)[C@H](C)O` (stereo partly specified) was tested, and the TGI (NCI-H226 lung) was > 100 µM, the TGI (MDA-MB-435) was > 100 µM and the TGI (PC-3 prostate) was > 100 µM.

`CCOC(=O)c1sc2nc(SC)nc3c2c1NC(=O)CN3c1ccc(F)cc1` was tested, and the TGI (NCI-H226 lung) was 91.5 µM, the TGI (MDA-MB-435) was > 100 µM and the TGI (PC-3 prostate) was 37 µM.

In the case of `C=C(C)[C@@H]1CC[C@]2(C(=O)O)CC[C@]3(C)[C@H](CC[C@@H]4[C@@]5(C)C/C(=C/c6ccco6)C(=O)C(C)(C)[C@@H]5CC[C@]43C)[C@@H]12`, the GI50 (MDA-MB-435) is reported as 3.55 µM and the TGI (MDA-MB-435) is reported as > 100 µM.

With `COc1cc2cc(C(=O)N3CC(CCl)c4ccc(NO)cc43)[nH]c2c(OC)c1OC` (stereo unspecified) the TGI (MDA-MB-435) was 0.481 µM and the TGI (PC-3 prostate) was 2.05 µM.

In the case of `CC(=O)NC1C(OCc2ccccc2)OC(CO)C(O)C1OCC(=O)NC(C(=O)NC(CCC(=O)NCCCCCC(=O)Nc1ccc2c(c1)CN1C(=O)c3ccccc3C1=N2)C(N)=O)C(C)C` (stereo unspecified), the TGI (MDA-MB-435) is reported as > 100 µM and the TGI (PC-3 prostate) is reported as 70.8 µM.

In the case of `CCCCC(CC)C(=O)Oc1ccc(C(=O)c2ccccc2)c(O)c1` (stereo unspecified), the TGI (MDA-MB-435) is reported as > 100 µM and the TGI (PC-3 prostate) is reported as > 100 µM.

`CC1CC(C)(O)C2C3(C)CCCC2(COC3=O)C12CCC1(CCOC1=O)O2` (stereo unspecified) was tested, and the TGI (SNB-78 CNS) was > 250 µM, the TGI (DMS 273 small cell lung) was > 250 µM and the TGI (P388 leukemia) was > 250 µM. The TGI (NCI-H226 lung) was > 250 µM, the TGI (SN12K1 renal) was > 250 µM and the TGI (HOP-18 NSCLC) was > 250 µM. The TGI (DMS 114 small cell lung) was > 250 µM, the TGI (KM20L2 colon) was > 250 µM and the TGI (DLD-1 colon) was > 250 µM. The TGI (XF 498 CNS) was > 39.6 µM, the TGI (M19-MEL melanoma) was > 250 µM and the TGI (P388/ADR leukemia) was > 116 µM.

In the case of `Cc1csc2nc(-c3cc([N+](=O)[O-])c(Cl)cc3Cl)c(/C=N/N=C(N)N)n12`, the TGI (NCI-H226 lung) is reported as 34.6 µM, the TGI (MDA-MB-435) is reported as 34.7 µM and the TGI (PC-3 prostate) is reported as 38.9 µM.

`COC(=O)[C@]12CC[C@H]3CN(S(=O)(=O)c4ccc(C)cc4)[C@H]([C@H]31)[C@H](c1ccco1)N2S(=O)(=O)c1ccc(C)cc1` was tested, and the TGI (NCI-H226 lung) was > 100 µM, the TGI (MDA-MB-435) was 55.8 µM and the TGI (PC-3 prostate) was > 100 µM.

With `CN(C)CCC(=O)[C@@]1(O)CC[C@H]2[C@@H]3CC=C4C[C@@H](O)CC[C@]4(C)[C@H]3CC[C@@]21C` the TGI (NCI-H226 lung) was > 100 µM, the TGI (MDA-MB-435) was 45.5 µM and the TGI (PC-3 prostate) was 26.2 µM.

`CCCCCCCCCCCCCCCCCCN(C)CC(COC)OP(=O)([O-])OCC[N+](C)(C)C` (stereo unspecified) gave a TGI (SNB-78 CNS) of 13.4 µM, a TGI (DMS 273 small cell lung) of 2.45 µM and a TGI (NCI-H226 lung) of 13.5 µM. For the same compound, the TGI (RXF-631 renal) was 22 µM, the TGI (HOP-18 NSCLC) was 9.91 µM and the TGI (DMS 114 small cell lung) was 9.75 µM. It also gave a TGI (MDA-MB-435) of 17.4 µM, a TGI (PC-3 prostate) of 1.47 µM and a TGI (KM20L2 colon) of 5.94 µM. For the same compound, the TGI (DLD-1 colon) was 12.8 µM, the TGI (XF 498 CNS) was 16.8 µM and the TGI (LXFL 529 NSCLC) was 7.98 µM. The TGI (M19-MEL melanoma) was 10.1 µM.

`O=C1c2cc3c(cc2[C@@H]2C(O)[C@H]4O[C@H]4C4CCN1C42)OCO3` (stereo partly specified) was tested, and the TGI (DMS 273 small cell lung) was > 37.5 µM, the TGI (NCI-H226 lung) was > 37.5 µM and the TGI (DMS 114 small cell lung) was > 37.5 µM. The TGI (KM20L2 colon) was > 37.5 µM, the TGI (XF 498 CNS) was > 37.5 µM and the TGI (LXFL 529 NSCLC) was > 37.5 µM.

With `NC1=NC(c2ccc(Cl)cc2)=CC(c2cccc(Cl)c2)S1` (stereo unspecified) the TGI (NCI-H226 lung) was 71.9 µM, the TGI (MDA-MB-435) was 38.9 µM and the TGI (PC-3 prostate) was > 100 µM.

`c1ccc(-c2cc3nc4ccccc4nc3cc(-c3ccccc3)[nH][nH]2)cc1` was tested, and the TGI (NCI-H226 lung) was > 100 µM, the TGI (MDA-MB-435) was > 100 µM and the TGI (PC-3 prostate) was > 100 µM.

`CCn1c2ccccc2c2ccc(C3C4C(=O)N(c5cccc6ccccc56)C(=O)C4ON3C(C(N)=O)c3ccccc3)cc21` (stereo unspecified) was tested, and the TGI (NCI-H226 lung) was 8.05 µM, the TGI (MDA-MB-435) was > 25 µM and the TGI (PC-3 prostate) was > 25 µM.

`C/C=C\C1OC1(C)c1cc(=O)c2c(C)cc3c(c2o1)C(=O)c1c(O)c(C2CC(C)(N(C)C)C(OC(C)=O)C(C)O2)cc(C2CC(N(C)C)C(O)C(C)O2)c1C3=O` (stereo unspecified) showed a TGI (NCI-H226 lung) of 0.018 µM, a TGI (MDA-MB-435) of 0.0103 µM and a TGI (PC-3 prostate) of 0.0131 µM.
